US20240238211A1, “ISOQUINOLINE-STABILIZED LIPID NANOPARTICLE FORMULATIONS” (ModernaTX, Inc., priority 2021, published 2024)

Experiments:
mRNA [1] = assay: mRNA stabilization: main peak purity by RP-HPLC (Example 1); assay type: physicochemical; conditions: LNP mRNA 0.2 mg/mL in buffer, T0, 3-day, 7-day (berberine, palmatine); buffered mRNA, 5 days at 50° C. (coralyne, palmatine)
Source text: mRNA purity can be determined by reverse phase high-performance liquid chromatography (RP-HPLC) size based separation. This method can be used to assess mRNA integrity by a length-based gradient RP separation and UV detection of RNA at 260 nm. As used herein “main peak” or “main peak purity” refers to the RP-HPLC signal detected from mRNA that corresponds to the full size mRNA molecule loaded within a given LNP formulation. mRNA purity can also be assessed by fragmentation analysis. Fragmentation analysis (FA) is a method by which nucleic acid (e.g., mRNA) fragments can be analyzed by capillary electrophoresis. Fragmentation analysis involves sizing and quantifying nucleic acids (e.g., mRNA), for example by using an intercalating dye coupled with an LED light source. Such analysis may be completed, for example, with a Fragment Analyzer from Advanced Analytical Technologies, Inc. Berberine USP was combined with an LNP containing mRNA (0.2 mg/ml in buffer) in amounts corresponding to the concentrations reported in FIG. 2. Main peak purity was measured by RP-HPLC at T0, 3-day, and 7-day. See, FIG. 2. Palmatine USP was combined with an LNP containing mRNA (0.2 mg/mL in buffer) in amounts corresponding to the concentrations reported in FIG. 3. Main peak purity was measured by RP-HPLC at T0, 3-day, and 7-day. […] After storage for 5 days at 50° C., main peak purity was measured by RP-HPLC. […]

mRNA [2] = assay: mRNA LNP stability as a function of pH and temperature (main peak purity); assay type: physicochemical; conditions: 1 mM excipient, pH 5.5 to 7.4, 0.8 mg/mL, 1 week at 40° C. or 2 weeks at 25° C.
Description: The stability of mRNA LNP formulations was evaluated as a function of pH and temperature in the presence and absence of berberine and palmatine. 1 mM excipients were added in pH conditions 5.5 to 7.4 to evaluate pH impact on mRNA stabilization in mRNA LNPs. For pH between 5.5-6.5, 7 mM citrate and 8% sucrose buffer was used. For pH of 7.4, tris/sucrose buffer was used. The LNP formulations were incubated at 0.8 mg/mL for 1 week at 40° C. or 2 weeks at 25° C., and then main peak purity was measured. Incubation for 1 week at 40° C. or 2 weeks at 25° C. show similar trends. […] See, FIG. 7.

[3] = Immunogenicity of mRNA LNP stability samples in vivo (serum antibody titers); set-up: species or system BALB/c mice; conditions: three month, 25° C. stability samples of mRNA LNPs containing palmatine, mice
Description: Experiments were performed to (i) evaluate immunogenicity of mRNA LNPs containing palmatine or berberine at varying concentrations as compared to non-stabilized control mRNA LNPs. BALB/c mice (N=210) are injected with a mRNA LNP stabilized with varying concentrations of palmatine or berberine (e.g., 0, 0.5 mM, 0.75 mM, 1 mM, 2 mM, 5 mM, or 10 mM). Various dose levels (e.g., 2.5 ug/mg; 1.25 ug/mg; or 0.63 ug/mg) are injected into mice intramuscularly on day 1. On day 21, immunogenicity is assessed via serum antibody titers against protein encoded by the mRNA. The mice are given a booster injection on day 22, and then immunogenicity is again assessed on day 36. Three month, 25° C. stability samples from mRNA LNPs containing palmatine at varying concentrations, and non-stabilized mRNA LNPs (no palmatine) were tested in vivo as continued immunogenicity monitoring on stability. […] The drop in antibody titers is correlated to a significant drop in mRNA purity.

[4] = test system: lipid nanoparticles encapsulating mRNA; assay: Permeation of palmatine chloride into lipid nanoparticles encapsulating mRNA; assay type: physicochemical; conditions: 2 mM palmatine, 1 to 14 days, 5, 15, 25 or 40° C., 20 mM Tris, 8% sucrose
Description: Formulations contain 0.20 mg/ml mRNA DP with 2 mM palmatine chloride. With reference to FIG. 11, studies were performed to determine the effect of time and temperature on diffusion (permeation) of palmatine chloride into lipid nanoparticles encapsulating mRNA. The samples were prepared in 20 mM Tris, 8% sucrose. The lipid nanoparticles encapsulating mRNA were incubated in 2 mM palmatine for 1 to 14 days. Free palmatine was separated from the lipid nanoparticles by gel filtration on 40 kD Zeba cartridges, whereas the concentration of lipid nanoparticle-permeated palmatine was determined by reverse phase chromatography using a Luna C18 column.

mRNA [5] = assay: Differential scanning microcalorimetry of mRNA with palmatine chloride; assay type: physicochemical; conditions: increasing palmatine chloride up to 500 μM, 20 mM Tris, 8% sucrose
Description: With reference to FIG. 9, differential scanning microcalorimetry thermograms were obtained of lipid nanoparticles encapsulating mRNA and containing increasing concentrations of palmatine chloride (left-most trace—free mRNA, right-most trace—500 μM palmatine). The experiments were performed in 20 mM Tris, 8% sucrose buffer.

mRNA [6] = assay: Stability of mRNA LNPs with DTPA and palmatine chloride (main peak purity); assay type: physicochemical; conditions: 0.20 mg/ml mRNA LNP, 1 mM DTPA, palmatine chloride 0.5, 1 or 2 mM, up to 5 months
Description: With reference to FIG. 12, studies were performed to determine the stability of lipid nanoparticles encapsulating mRNA containing the chelator DTPA and varying concentrations of palmatine chloride. 0.20 mg/ml samples of lipid nanoparticles encapsulating mRNA and 1 mM DTPA were incubated with palmatine chloride (0 mM, 0.5 mM, 1 mM, or 2 mM). Measurements of main peak (mRNA) purity were taken at time points up to 5 months.

mRNA [7] = assay: Long-term stability of mRNA with 2 mM palmatine chloride (intact mRNA by chromatography); assay type: physicochemical; conditions: for degradation rate (% per month) / greater purity than unstabilized composition: 0.20 mg/ml mRNA + 2 mM palmatine chloride
Description: The degradation rate (% per month) of the stabilized composition was 1.8% as compared to […] for the unstabilized composition. […] The degradation rate (% per month) of the stabilized composition was 8.6% as compared to 38% for the unstabilized composition. […] With reference to FIGS. 10A and 10B, studies were performed to determine the long-term effect of palmatine chloride on thermal stability of mRNA. Aliquots of mRNA solution were mixed with 2 mM palmatine chloride and were incubated for the indicated periods of time at 5° C. (FIG. 10A) and 25° C. (FIG. 10B). The percentage of remaining intact mRNA was quantified using chromatography. The dashed line traces represent mRNA-only samples. The solid line traces represent mRNA samples containing palmatine chloride.

mRNA [8] = assay: mRNA purity of three month, 25° C. stability samples of mRNA LNPs; assay type: physicochemical; conditions: mRNA LNPs containing palmatine at varying concentrations, 3 months at 25° C.
mRNA LNPs = assay: Dynamic light scattering of mRNA LNPs after 40° C. stress; assay type: physicochemical; conditions: 1 mM berberine, 40° C. stress for 1 week
Source text: Particle size (e.g., particle diameter) can be determined by Dynamic Light Scattering (DLS). DLS measures a hydrodynamic diameter. Smaller particles diffuse more quickly, leading to faster fluctuations in the scattering intensity and shorter decay times for the autocorrelation function. Larger particles diffuse more slowly, leading to slower fluctuations in the scattering intensity and longer decay times in the autocorrelation function. Dynamic light scattering is sensitive to perturbation to the physical integrity of mRNA LNPs. mRNA LNPs were formulated with 1 mM berberine or without berberine and then exposed to 40° C. temperature stress for 1 week. As a control, mRNA LNPs were formulated without berberine. The size distribution of the mRNA LNPs was then analyzed by dynamic light scattering. […] See, FIG. 6.

mRNA [9] = assay: mRNA LNP stability at pH 7.4 as a function of berberine concentration (main peak purity); assay type: physicochemical; conditions: 0-1.5 mM berberine, pH 7.4 tris/sucrose, ~0.2 mg/mL, 1 week at 40° C. or 2 weeks at 25° C.
Description: The stability of mRNA LNP formulations at pH of 7.4 was then further evaluated as a function of berberine concentration. A series of mRNA LNPs were formulated with various levels of berberine (0, 0.2, 0.4, 0.6, 0.8, 1.0, 1.25, 1.5 mM) and stressed in 7.4 pH tris/sucrose buffer at ˜0.2 mg/mL for either 1 week at 40° C. or 2 weeks at 25° C., and then main peak purity was measured. […] In this study, maximal effect occurs in the 1-1.25 mM berberine range. See, FIG. 8.

mRNA [10] = assay: HPLC purity of mRNA stressed at 40° C. for 3 weeks; assay type: physicochemical; conditions: ~1 mM berberine
Description: HPLC analyses were performed to evaluate the purity of mRNA stressed at elevated temperature (40° C.) for 3 weeks. In the absence of stabilizer, less than 5% of the mRNA (main peak 5.857 min) remained intact. By contrast, in the presence of ˜1 mM berberine, over 22% of the mRNA (main peak 5.857 min) remained intact. […] See, FIG. 5.

SMILES | effect on mRNA (main peak purity by RP-HPLC) (mRNA [1]) | stabilizing effect across pH range (main peak purity) (mRNA [2]) | antibody titers versus −70° C. non-stabilized control [3] | permeated concentration in lipid nanoparticles as a function of temperature [4] | rate of permeation into lipid nanoparticles as a function of temperature [4] | effect of binding on thermal stability of mRNA (DSC thermograms) (mRNA [5]) | mRNA stability (main peak purity) (mRNA [6]) | degradation rate (% per month) (mRNA [7]; 5° C. over twelve months) | greater purity than unstabilized composition (mRNA [7]; 5° C., after ten months) [%] | degradation rate (% per month) (mRNA [7]; 25° C. over six months) | greater purity than unstabilized composition (mRNA [7]; 25° C., after six months) [%] | mRNA thermal stability in the presence of the compound (mRNA [7]; 2 mM palmatine chloride, 5° C. and 25° C.) | mRNA purity versus non-stabilized samples (mRNA [8]) | effect on hydrodynamic characteristics of the lipid nanoparticle (size distribution) (mRNA LNPs) | dependence of stabilizing effect on concentration (mRNA [9]) | mRNA remaining intact (main peak) (mRNA [10])
COc1cc2c(cc1OC)-c1cc3ccc(OC)c(OC)c3c[n+]1CC2 [palmatine] | stabilizing effect | strong stabilizing effects | more similar antibody titers to the −70 °C control arm | increased permeated palmatine concentration | increased rate of permeation | increased thermal stability of mRNA | significantly improved | 1.8 | 20 | 8.6 | 35 | significantly improved | higher mRNA purity than the non-stabilized | – | – | –
COc1ccc2cc3[n+](cc2c1OC)CCc1cc2c(cc1-3)OCO2 [berberine] | stabilizing effect | strong stabilizing effects | – | – | – | – | – | – | – | – | – | – | – | no effect on the hydrodynamic characteristics of the lipid nanoparticle | concentration-dependent manner | over 22%
